# “Also recorded” adds a separate entry of the source. Where two headings read alike, the source gives them in different places.
# How the values were obtained:
# [1] = tested on: HCT-8.clone 10 (AZT resistant) cells; test: growth inhibition of HCT-8.clone 10 (AZT resistant) cells; assay type: cell-based, human; details: for inhibition at 10 µM / inhibition at 1 µM / inhibition at 100 µM: Homo sapiens, 72 hours, read-out: Percent Growth Inhibition; for inhibition at 1 µM: 5-FUra 1 micromolar; for inhibition at 100 µM: 5-FUra 100 micromolar
# Method: (§1) In general, the experiments designed to assess the […] activity of 5-fluoropyrimidines in conjunction with the 6-pyridyl substituted pyrimidine are carried out as follows.
# (§2) Screw cap plastic tissue culture tubes are seeded with identical numbers of cultured tumor cells (approximately 2×10^4 cells/tube) in 4.8 mL RPMI-1640 containing 10% Fetal Bovine Serum (FBS) and 2% HEPES (IM buffer solution). The cultures are incubated overnight, on their sides, at 37° C. in a nonhumidified […] incubator.
# (§3) The following day, the number of cells in duplicate tubes is determined. The media is decanted, the cells rinsed with Hanks' Balanced Salt Solution (calcium, magnesium and bicarbonate free) and replaced with 4.0 mL of trypsin-EDTA solution. The tubes are incubated at 37° C. for 5 minutes, then shaken to loosen the cells from the tube walls. To each tube is then added 1.0 mL of FBS and medium (50:50) in order to stop the action of the trypsin. Clumps of cells are broken apart by forceful repipetting with a 10 mL glass pipette. The resulting single cell suspension is counted using trypan blue exclusion and the total number of cells per tube recorded as the starting cell number.
# (§4) Cells suspended in RPMI/FBS are preincubated with or without BPTU for 30 minutes, followed by addition of a given dose of 5-FUra. Tables 1 and 2 present the cell growth inhibition after 72 hours incubation with varying concentrations of 5-FUra, in the presence or absence of preincubation with 10 micromolar BPTU.
# (§5) Similarly, Table 2 reports the effects of 5-FUra used in conjunction with BPTU on ™HCT-8 cells.
# [2] = tested on: HIV-1; test: anti-HIV activity: protection of T4 lymphocytes from HIV-1 cytolysis (XTT); assay type: cell-based; details: HIV-1 in CEM cells
# Method: (§6) The procedure used to test the 6-pyridyl substituted pyrimidine derivatives activity against HIV is designed to detect agents acting at any stage of the virus reproductive cycle (see Weislow et al. (1989) J. Nat'l. Cancer Inst. 81:577-586, incorporated by reference herein). The assay basically involves the killing of T4 lymphocytes by HIV. Small amounts of HIV are added to cells, and a complete cycle of virus reproduction is necessary to obtain the required cell killing. Agents that interact virions, cells, or virus gene-products to interfere with viral activities will protect cells from cytolysis. All tests are compared with at least one positive (e.g., AZT-treated) control done at the same time under identical conditions.
# (§7) 1. The candidate pyrimidine derivative is dissolved in dimethyl sulfoxide then diluted 1:100 in cell culture medium before preparing serial half-log10 dilutions. T4 lymphocytes (CEM cell line) are added and after a brief interval HIV-1 is added, resulting in a 1:200 final dilution of the compound. […]
# (§8) 4. Individual wells are analyzed spectrophotomically to quantitate formazan production, and in addition are viewed microscopically for detection of viable cells and confirmation of protective activity. […]
# (§9) The anti-HIV activity profile of 1-benzyloxymethyl-5-ethyl-6-(α-pyridylthio) uracil determined by this procedure has been graphically represented in FIG. 1.
# [3] = toxicity to T4 lymphocytes (CEM cell line), uninfected toxicity control (XTT); assay type: cell-based; details: human, CEM cells, 6 days, read-out: toxic concentration (IC50)
# Method: as §6, §7, §8, §9
# [4] = tested on: HCT-8 cells; test: growth inhibition of HCT-8 cells; assay type: cell-based, human; details: for inhibition at 10 µM / inhibition at 1 µM / inhibition at 3 µM: Homo sapiens, 72 hours; for inhibition at 1 µM: 5-FUra 1 micromolar; for inhibition at 3 µM: 5-FUra 3 micromolar
# Method: as §1, §2, §3, §4, §5
# [5] = with BPTU (10 micromolar) preincubated 30 minutes
# [6] = with BPTU (10 micromolar) preincubated 30 minutes, read-out: Percent Growth Inhibition
# [7] = without BPTU, read-out: Percent Growth Inhibition
smiles,measurement,setting,value
"CCc1c(Sc2ccccn2)n(COCc2ccccc2)c(=O)[nH]c1=O [BPTU, 1-benzyloxymethyl-5-ethyl-6-(α-pyridylthio) uracil]",inhibition at 10 µM,"[1]; 5-FUra 0, with BPTU (10 micromolar) alone",0%
same,growth inhibitory activity alone,"[1]; alone at 10 micromolar, HCT-8.clone 10",not shown to be growth inhibitory
same,inhibition of cell growth in combination with 5-FUra,"[1]; combination with 5-FUra vs 5-FUra alone, HCT-8.clone 10",more effectively than 5FUra alone
same,therapeutic index (TI50),[2]; 8640 min,> 1.1e+06 mM
same,EC50,"[2]; Human immunodeficiency virus 1, CCRF-CEM, 144 h, 6 days, XTT, read-out: effective concentration (EC50)",0.9 nM
same,CC50 at 144 h,[3],> 980 nM
same,inhibition at 10 µM,"[4]; 5-FUra 0, with BPTU (10 micromolar) alone, read-out: Percent Growth Inhibition",0%
same,growth inhibitory activity alone,[4]; alone at 10 micromolar,not shown to be growth inhibitory
same,inhibition of cell growth in combination with 5-FUra,[4]; combination with 5-FUra vs 5-FUra alone,more effectively than 5-FUra alone; also recorded: more effectively than 5FUra alone
"O=c1[nH]cc(F)c(=O)[nH]1 [Example 5-FUra, 5-fluorouracil]",inhibition at 1 µM,[1]; [5],23%
same,inhibition at 1 µM,[1]; without BPTU,0%
same,inhibition at 10 µM,"[1]; 5-FUra 10 micromolar, with BPTU (10 micromolar) preincubated 30 minutes, P<0.01",74%
same,inhibition at 10 µM,"[1]; 5-FUra 10 micromolar, without BPTU",29%
same,inhibition at 100 µM,[1]; [5],> 100%
same,inhibition at 100 µM,[1]; without BPTU,56%
same,inhibition at 1 µM,[4]; [6],33%
same,inhibition at 1 µM,[4]; [7],0%
same,inhibition at 3 µM,[4]; [6],55%
same,inhibition at 3 µM,[4]; [7],9%
same,inhibition at 10 µM,"[4]; 5-FUra 10 micromolar, with BPTU (10 micromolar) preincubated 30 minutes, P<0.01, read-out: Percent Growth Inhibition",80%
same,inhibition at 10 µM,"[4]; 5-FUra 10 micromolar, without BPTU, read-out: Percent Growth Inhibition",33%

# — US5278167A, “6-pyridyl substituted pyrimidine derivatives” (Brown University Research Foundation, priority 1992, dated 1994)
